Source: patent US20050272647A1, “Arthrodial cartilage extracellular matrix degradation inhibitor” (priority 2002, published 2005)
Where a name gives a salt, the structure may show the parent alone.

How the values were obtained:
[1] = tested on: rabbit knee articular cartilage primary culture cells; test: PG destruction inhibitory activity in rabbit cartilage primary culture cell (stimulation with retinoic acid); details: Oryctolagus cuniculus, 48 h, read-out: PG degradation inhibition (%)
Method: After a rabbit (Japanese white race, male, 1.0 to 1.5 kg) was killed under excessive anesthesia, the knee joint was taken out and the cartilage layer on the articular surface was abraded and cut finely. […] After 3 days, the medium was replaced by 200 μl of DMEM/10% FBS medium containing 50 μg/ml ascorbic acid (hereinafter referred to as ascorbic acid medium) and two days of culture was further repeated twice. Thereafter, the rabbit knee articular cartilage primary culture cells were cultured in 200 μl of the ascorbic acid medium containing Na2 35SO4 of a final concentration of 10 μCi/ml for 3 days to achieve labeling, followed by washing with 200 μl of the ascorbic acid medium three times and 1 day of culture in 200 μl of the ascorbic medium. The culture was stimulated with all-trans retinoic acid (manufactured by Sigma) of a final concentration of 1 μM. A culture supernatant after 48 hours was recovered in an each amount of 20 μl and radioactivity was measured using Topcount (manufactured by Packard). The test compound was added simultaneously with the start of the stimulation and a PG degradation inhibitory activity was calculated as percentage where a group to which retinoic acid was not added was defined as 100% and a group to which retinoic acid was added was defined as 0%.

HDAC = details: literature value, cited from earlier work; for IC50: read-out: HDAC inhibitory activity (IC50 value); for HDAC inhibitory activity (order of magnitude): Nat. Rev. Drug Discov. 2002
[2] = tested on: rabbit cartilage primary culture cells; test: PG destruction inhibitory activity in rabbit cartilage primary culture cell (stimulation with IL-1); details: Oryctolagus cuniculus, 48 h, read-out: PG degradation inhibition (%)
Method: After a rabbit (Japanese white race, male, 1.0 to 1.5 kg) was killed under excessive anesthesia, the knee joint was taken out and the cartilage layer on the articular surface was abraded and cut finely. […] After 3 days, the medium was replaced by 200 μl of DMEM/10% FBS medium containing 50 μg/ml ascorbic acid (hereinafter referred to as ascorbic acid medium) and two days of culture was further repeated twice. Thereafter, the rabbit knee articular cartilage primary culture cells were cultured in 200 μl of the ascorbic acid medium containing Na2 35SO4 of a final concentration of 10 μCi/ml for 3 days to achieve labeling, followed by washing with 200 μl of the ascorbic acid medium three times and 1 day of culture in 200 μl of the ascorbic medium.
They were stimulated with human IL-1β (manufactured by R&D System) of a final concentration of 10 ng/ml. A culture supernatant after 48 hours was recovered in an each amount of 20 μl and radioactivity was measured using Topcount (manufactured by Packard). The test compound was added simultaneously with the start of the stimulation and a PG degradation inhibitory activity was calculated as percentage where a group to which IL-1 was not added was defined as 100% and a group to which IL-1 was added was defined as 0%.

[3] = tested on: histone deacetylase fraction; test: HDAC inhibitory activity, [3H]acetylhistone and histone deacetylase fraction (method of Yoshida et al.); type: biochemical; details: at 30 nM
Method: Specifically, the measurement can be conducted, using [^3H]acetylhistone and a histone deacetylase fraction prepared by the method described in the above reference, adding a test compound to a reaction solution containing [^3H]acetylhistone and DTT, mixing the histone deacetylase fraction after 1 hour of pre-incubation at room temperature, reacting them for 2 hours at room temperature, adding 1M hydrochloric acid and ethyl acetate thereto, and then measuring radioactivity in the ethyl acetate layer separated by centrifugation by a scintillation counter.

CCC(=O)CCCCC[C@@H]1NC(=O)[C@H]2CCCCN2C(=O)[C@H]([C@@H](C)CC)NC(=O)[C@H](Cc2cn(OC)c3ccccc23)NC1=O [Apicidin]
inhibition at 0.03 µM [1]: 25%
inhibition at 0.3 µM [1]: 92%

CCCC(CCC)C(=O)O [Valproic acid (Na salt), Valproic acid]
inhibition at 300 µM [1]: 49%
inhibition at 1000 µM [1]: 46%
inhibition at 3000 µM [1]: 79%

CCCC(=O)O [Butyric acid (Na salt), Butyric acid]
inhibition at 300 µM [1]: 27%
inhibition at 3000 µM [1]: 93%
IC50 (HDAC): 280000 nM
inhibition at 5000 µM [2]: 78%

C/C=C1\NC(=O)[C@H]2CSSCC/C=C/[C@H](CC(=O)N[C@H](C(C)C)C(=O)N2)OC(=O)[C@H](C(C)C)NC1=O [FK228]
inhibition at 0.01 µM [1]: 39%
inhibition at 0.1 µM [1]: 97%
inhibition at 0.03 µM [2]: 97%

CC(/C=C/C(=O)NO)=C\[C@@H](C)C(=O)c1ccc(N(C)C)cc1 [Trichostatin A]
inhibition at 0.1 µM [1]: 40%
inhibition at 1 µM [1]: 58%
IC50 (HDAC): 2.1 nM

CCCC(=O)O [butyric acid]
HDAC inhibitory activity (order of magnitude) (HDAC): mM order

CC1NC(=O)CC2/C=C/CCSSCC(NC1=O)C(=O)NC(C(C)C)C(O)CC(=O)O2 (centres unmarked) [Compound A]
HDAC inhibition [3]: about 85%
inhibition at 0.001 µM [1]: 20%
inhibition at 0.01 µM [1]: 51%
inhibition at 0.1 µM [1]: 93%
inhibition at 1 µM [1]: 98%
inhibition at 0.0003 µM [2]: 6%
inhibition at 0.003 µM [2]: 39%
inhibition at 0.03 µM [2]: 61%

Nc1ccccc1NC(=O)c1ccc(CNC(=O)OCc2cccnc2)cc1 [MS-27-275]
IC50 (HDAC): 2000 nM

CCCC(CCC)C(=O)O [Valproic acid]
HDAC inhibitory activity (order of magnitude) (HDAC): mM order

O=C(/C=C/c1ccc(CN(CCO)CCc2c[nH]c3ccccc23)cc1)NO [NVP-LAQ824]
inhibition at 0.03 µM [1]: 26%
inhibition at 0.3 µM [1]: 90%
IC50 (HDAC): 30 nM
